Measurements: paper PMC7282811
Where two headings read alike, the source gives them in different places.

Legend:
H3R = biological target: T1, H3R (Mus musculus, UniProt P58406); test: tissue or organelle; design: species or system brain tissue of 8-month-old Hdh^Q7/Q7 or Hdh^Q7/Q111 mice; radioligand binding to mouse brain region membranes, KD from saturation and competition curves
T1 construct: gene Hrh3; native receptor, endogenous in mouse brain tissue membranes
Description: (§1) Supplementary file elife-51093-supp2.docx: Supplementary file 2. H3R and D1R binding parameters in different brain regions from 8-month-old Hdh^Q7/Q7 and Hdh^Q7/Q111 mice. Mouse striatal, cortical or hippocampal tissue were homogenized in 50 mM Tris-HCl buffer and ligand binding was performed with membrane suspension (see online methods). Binding parameters from saturation and competition curves were obtained using Grafit software by fitting the binding data to the equation previously deduced (equation (3) in [Gracia et al., 2013]. Data are mean ± SEM of experiments performed per triplicate (n = 6 Hdh^Q7/Q7 and n = 5 Hdh^Q7/Q111). To test whether D1R-H3R heteromers can indeed be targets for treating HD, we investigated their expression and function in the striatum, cerebral cortex and hippocampus of a widely accepted preclinical model of HD, the heterozygous Hdh^Q7/Q111 mutant knock-in mice, and their wild-type Hdh^Q7/Q7 littermates ([Giralt et al., 2012]; [Puigdellívol et al., 2015]). By PLA we confirmed that both Hdh^Q7/Q7 and Hdh^Q7/Q111 mice display D1R-H3R heteromers at 2 months (mo) (Figure 2—figure supplement 1) and four mo (Figure 2A,B) of age in all brain regions tested. […] Heteromer expression was similar in all brain areas and no differences were observed between genotypes at 4 mo of age (Figure 2B). […] Although at 8 mo of age we detected a partial decrease in striatal D1R expression in Hdh^Q7/Q111 compared with Hdh^Q7/Q7 mice using ligand binding experiments (Supplementary file 2), the loss of heteromer expression is not due to a complete loss of receptor expression since by radioligand binding (Supplementary file 2) and mRNA expression analysis (Supplementary file 3) both receptors continue to be expressed.

D1R = biological target: T2, D1R (Mus musculus, UniProt Q61616); test: tissue or organelle; design: species or system brain tissue of 8-month-old Hdh^Q7/Q7 or Hdh^Q7/Q111 mice; radioligand binding to mouse brain region membranes, KD from saturation and competition curves
T2 construct: gene Drd1; native receptor, endogenous in mouse brain tissue membranes
T2 sequence (Q61616 whole entry): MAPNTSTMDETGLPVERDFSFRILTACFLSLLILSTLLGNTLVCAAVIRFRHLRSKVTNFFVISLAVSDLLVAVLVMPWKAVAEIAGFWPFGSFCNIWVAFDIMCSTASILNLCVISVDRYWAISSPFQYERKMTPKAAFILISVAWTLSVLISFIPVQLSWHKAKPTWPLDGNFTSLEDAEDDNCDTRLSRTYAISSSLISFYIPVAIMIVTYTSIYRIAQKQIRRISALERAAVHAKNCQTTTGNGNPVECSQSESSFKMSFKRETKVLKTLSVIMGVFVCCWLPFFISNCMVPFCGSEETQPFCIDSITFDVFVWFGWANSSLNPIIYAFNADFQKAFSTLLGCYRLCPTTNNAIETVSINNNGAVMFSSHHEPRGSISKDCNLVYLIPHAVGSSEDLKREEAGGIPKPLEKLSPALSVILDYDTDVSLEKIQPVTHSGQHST
Description: as §1

[1] = biological target: T3, dopamine D1 receptor (D1R) (Mus musculus, UniProt Q61616); test: radioligand saturation binding, cell membranes, filtration; conditions: labelled compound; STHdh^Q7 cell membranes; 50 mM Tris-HCl pH 7.4, 10 mM MgCl2, 25 °C; nonspecific with 30 µM unlabelled ligand; read-out: binding parameters
T3 construct: gene Drd1; native full-length receptor, endogenous in membranes of STHdh^Q7 mouse striatal cells; part may be in D1R-H3R heteromers
T3 sequence (Q61616 whole entry): as above
Description: radioligand saturation binding, cell membranes, filtration on dopamine D1 receptor (D1R) | membranes were incubated with increasing free concentrations of [^3H]

[2] = biological target: T3, dopamine D1 receptor (D1R); design: species or system STHdh^Q7 or STHdh^Q111 mouse striatal cells; radioligand binding to striatal cell membranes, KD from saturation and competition curves; conditions: STHdh^Q111 cell membranes; binder
Description: Supplementary file elife-51093-supp1.docx: Supplementary file 1. H3R and D1R binding parameters in STHdh^Q7, STHdh^Q111 cells. Striatal cells were homogenized in 50 mM Tris-HCl buffer and ligand binding was performed with membrane suspension (see materials and methods). Binding parameters from saturation and competition curves were obtained using Grafit software by fitting the binding data to the equation previously deduced (equation (3) in [Gracia et al., 2013]. Data are mean ± SEM of experiments performed per triplicate.

[3] = Cortex, 8-month-old Hdh^Q7/Q7 mice
[4] = Hippocampus, 8-month-old Hdh^Q7/Q7 mice
[5] = Hippocampus, 8-month-old Hdh^Q7/Q111 mice
[6] = Striatum, 8-month-old Hdh^Q7/Q7 mice
[7] = Striatum, 8-month-old Hdh^Q7/Q111 mice

T1 sequence (P58406 whole entry): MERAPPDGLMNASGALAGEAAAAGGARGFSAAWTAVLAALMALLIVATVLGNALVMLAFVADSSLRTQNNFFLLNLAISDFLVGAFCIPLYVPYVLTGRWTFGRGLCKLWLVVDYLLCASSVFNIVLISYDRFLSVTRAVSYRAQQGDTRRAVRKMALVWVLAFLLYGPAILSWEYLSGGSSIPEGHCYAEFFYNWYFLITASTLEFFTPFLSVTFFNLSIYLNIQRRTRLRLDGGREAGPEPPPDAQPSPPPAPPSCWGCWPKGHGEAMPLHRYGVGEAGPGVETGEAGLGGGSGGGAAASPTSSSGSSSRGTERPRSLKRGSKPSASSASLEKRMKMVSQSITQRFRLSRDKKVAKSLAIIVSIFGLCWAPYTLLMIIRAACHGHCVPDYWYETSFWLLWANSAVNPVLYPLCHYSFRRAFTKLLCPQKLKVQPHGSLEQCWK

| Kd (D1R; [3]) [nM] | Kd (D1R; [4]) [nM] | Kd (D1R; [5]) [nM] | Kd (D1R; [6]) [nM] | Kd (D1R; [7]) [nM] | Kd [1] [nM] | Kd [2] [nM] | SMILES | Kd (H3R; [3]) [nM] | Kd (H3R; Cortex, 8-month-old Hdh^Q7/Q111 mice) [nM] | Kd (H3R; [4]) [nM] | Kd (H3R; [5]) [nM] | Kd (H3R; [6]) [nM] | Kd (H3R; [7]) [nM] |
| --- | --- | --- | --- | --- | --- | --- | --- | --- | --- | --- | --- | --- | --- |
| – | – | – | – | – | – | – | C[C@@H](N)Cc1c[nH]cn1 [[^3H] R-α-methyl histamine] | 0.22 ± 0.02 | 0.24 ± 0.04 | 0.2 ± 0.01 | 0.37 ± 0.1 | 0.27 ± 0.03 | 0.26 ± 0.03 |
| 0.05 ± 0.01 | 0.03 ± 0.02 | 0.09 ± 0.07 | 0.17 ± 0.02 | 0.11 ± 0.01 | 0.3 ± 0.1 | 0.16 ± 0.08 | CN1CCc2cc(Cl)c(O)cc2[C@@H](c2ccccc2)C1 [[^3H] SCH 23390] | – | – | – | – | – | – |
